Assays:
NBD1 = target: T1, NBD1 (Homo sapiens, UniProt P13569); experiment: Aggregation analysis using differential static light scattering (DSLS), thermal stability of NBD1 (ΔTagg); type: binding; details: ΔTagg versus DMSO control, NBD1 0.2 mg/ml
T1 construct: Purified recombinant NBD1 was produced using previously described methods; made in house
Method in brief: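 Stabilisation is measured as the shift in aggregation onset of recombinant NBD1 (0.2 mg/ml, 2 mM ATP, 5 mM MgCl2, pH7.6) exposed to compound. Images are taken every 0.5° C. while heating at 1° C. per minute, and the inflection-point Tagg is corrected by the DMSO mean.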

CFTR = target: T2, CFTR (Homo sapiens, UniProt P13569, DEL508-508); experiment: TECC24 AUC fold over DMSO @10 μM, CFTR-mediated transepithelial chloride transport in CF-HBE cells; type: cell-based; details: test agent AUC divided by DMSO vehicle AUC, primary CF-HBE cells, ΔF508 homozygous donor, 48 hours incubation
T2 construct: Primary human bronchial epithelial cells from a ΔF508 homozygous CF donor; host or cells: primary human bronchial epithelial cells (CF-HBE), ΔF508 homozygous donor
Description: Example 387. TECC24 AUC Fold Over DMSO @10 μM
The effects of a test agent on CFTR-mediated transepithelial chloride transport is measured using TECC24 recording analysis. Test agents are solubilized in DMSO. Solubilized test agents are mixed with incubation medium containing DMEM/F12, Ultroser G (2%; Crescent Chemical, catalog #67042), Hyclone Fetal Clone II (2%; GE Healthcare, catalog #SH30066.02), bovine brain extract (0.25%; Lonza, catalog #CC-4098), insulin (2.5 μg/mL), IL-13 (10 ng/mL), hydrocortisone (20 nM), transferrin (2.5 μg/mL), triiodothyronine (500 nM), ethanolamine (250 nM), epinephrine (1.5 μM), phosphoethanolamine (250 nM), and retinoic acid (10 nM). Primary human bronchial epithelial cells from a ΔF508 homozygous CF donor (CF-HBE cells; from University of North Carolina Cystic Fibrosis Tissue Procurement Center), grown on Transwell HTS 24-well cell culture inserts (Costar, catalog #3378), are exposed to test agents or controls dissolved in incubation medium. The CF-HBE cells are cultured at 36.5° C. for 48 hours before TECC24 recordings are performed in the presence or absence of test agent, a positive control or vehicle (DMSO).
Following incubation, the transwell cell culture inserts containing the test agent or control-treated CF-HBE cells are loaded onto a TECC24 apparatus (TECC v7 or MTECC v2; EP Design) to record the transepithelial voltage (VT) and resistance (TEER) using 4 AgCl electrodes per well configured in current-clamp mode. The apical and basolateral bath solutions both contain (in mM) 140 NaCl, 5 KCl, 2 CaCl2, 1 MgCl2, 10 Hepes, and 10 glucose (adjusted to pH 7.4 with NaOH). To inhibit basal Na+ absorption, the ENaC inhibitor benzamil (10 μM) is added to the bath. Then, the adenylate cyclase activator, forskolin (10 μM), is added to the bath to activate CFTR. The forskolin-stimulated Cl— transport is halted by addition of CFTR inhibitor-172 (20 μM) to the bath at the end of the experiment to confirm specificity. VT and TEER recordings are digitally acquired at routine intervals using TECC or MTECC software (EP Design). VT and TEER are transformed into equivalent transepithelial Cl— current (IEQ), and the Area Under the Curve (AUC) of the IEQ time course between forskolin and CFTR inhibitor-172 addition is generated using Excel (Microsoft). Efficacy is expressed as the ratio of the test agent AUC divided by vehicle AUC. EC50s based on AUC are generated using the non-linear regression log(agonist) vs. response function in Prism software (Graphpad) with HillSlope fixed=1.
If a test agent increases the AUC of the forskolin-stimulated IEQ relative to vehicle in CF-HBE cells, and this increase is inhibited by CFTR inhibitor-172, then the test agent is considered a CFTR corrector. TECC assay efficacy is expressed as the ratio of the test agent AUC divided by DMSO vehicle AUC. As set forth in Table 2 below, a TECC value less than 12 is marked “A”; a value between 12-20 is marked “B”; a value between 20 and 80 is marked “C”. […]

T2 sequence (P13569 with tags, fused parts or gaps DEL508-508): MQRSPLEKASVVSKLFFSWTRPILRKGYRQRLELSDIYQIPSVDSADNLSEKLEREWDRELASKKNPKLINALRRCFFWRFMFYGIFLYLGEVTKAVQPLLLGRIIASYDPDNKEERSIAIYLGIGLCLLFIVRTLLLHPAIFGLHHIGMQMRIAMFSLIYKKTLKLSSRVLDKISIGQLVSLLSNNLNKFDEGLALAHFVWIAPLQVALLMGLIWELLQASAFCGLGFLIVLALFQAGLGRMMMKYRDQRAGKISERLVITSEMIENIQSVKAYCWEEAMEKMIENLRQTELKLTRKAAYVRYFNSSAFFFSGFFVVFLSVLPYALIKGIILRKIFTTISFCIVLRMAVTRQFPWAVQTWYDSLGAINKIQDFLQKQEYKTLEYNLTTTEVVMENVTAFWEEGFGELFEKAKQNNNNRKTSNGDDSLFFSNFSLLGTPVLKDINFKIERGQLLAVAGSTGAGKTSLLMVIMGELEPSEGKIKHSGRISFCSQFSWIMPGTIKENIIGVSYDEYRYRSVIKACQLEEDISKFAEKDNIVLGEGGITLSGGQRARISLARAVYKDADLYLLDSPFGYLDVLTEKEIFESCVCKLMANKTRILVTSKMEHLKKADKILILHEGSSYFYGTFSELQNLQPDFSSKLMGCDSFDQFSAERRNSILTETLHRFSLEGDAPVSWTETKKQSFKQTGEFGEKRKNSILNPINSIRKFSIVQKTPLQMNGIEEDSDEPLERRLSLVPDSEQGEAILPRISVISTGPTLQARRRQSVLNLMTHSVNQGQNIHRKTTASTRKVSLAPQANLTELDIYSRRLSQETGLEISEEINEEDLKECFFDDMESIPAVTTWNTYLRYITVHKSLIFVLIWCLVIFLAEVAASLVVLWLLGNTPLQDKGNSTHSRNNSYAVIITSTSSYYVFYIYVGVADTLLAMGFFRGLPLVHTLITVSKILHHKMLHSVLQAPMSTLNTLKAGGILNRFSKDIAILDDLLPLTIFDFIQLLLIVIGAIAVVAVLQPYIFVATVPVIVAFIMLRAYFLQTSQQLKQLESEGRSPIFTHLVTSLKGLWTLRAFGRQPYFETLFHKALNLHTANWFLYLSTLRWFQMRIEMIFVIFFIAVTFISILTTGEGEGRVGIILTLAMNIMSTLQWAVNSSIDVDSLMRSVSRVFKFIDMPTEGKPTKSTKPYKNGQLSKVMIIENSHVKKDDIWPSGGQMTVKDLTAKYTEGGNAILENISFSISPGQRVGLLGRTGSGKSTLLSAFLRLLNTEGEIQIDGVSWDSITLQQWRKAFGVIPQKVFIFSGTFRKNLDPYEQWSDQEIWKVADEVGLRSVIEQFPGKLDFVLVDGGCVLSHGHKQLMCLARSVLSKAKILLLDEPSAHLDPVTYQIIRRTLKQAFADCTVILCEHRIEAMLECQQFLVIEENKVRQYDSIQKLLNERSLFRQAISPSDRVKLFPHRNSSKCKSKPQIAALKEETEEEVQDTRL
T1 sequence (P13569 423-646 limits assumed): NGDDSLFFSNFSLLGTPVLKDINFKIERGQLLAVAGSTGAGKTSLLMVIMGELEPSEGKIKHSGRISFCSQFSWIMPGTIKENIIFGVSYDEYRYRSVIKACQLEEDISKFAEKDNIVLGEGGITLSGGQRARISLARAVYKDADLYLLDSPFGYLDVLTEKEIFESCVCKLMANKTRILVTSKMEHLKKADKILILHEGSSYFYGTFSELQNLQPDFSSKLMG

SMILES	DSLS 3D (100 μM ΔT) (NBD1)	TECC (AUC, 10 μM) (CFTR)
C[C@@H](Cc1cccc([C@@]2(C)CCCC(C)(C)CS(=O)(=O)CCc3c(c(F)cc4[nH]ccc34)Oc3ccnc(c3)-c3nc2nn3C)c1)C(=O)O (mixture of isomers) [Compound 201, (2S)-3-[3-[(6R)-22-Fluoro-3,6,10,10-tetramethyl-12,12-dioxo-24-oxa-12λ6-thia-3,4,19,28,30-pentazapentacyclo[23.3.1.12,5.015,23.016,20]triaconta-1(29),2(30),4,15,17,20,22,25,27-nonaen-6-yl]phenyl]-2-methyl-propanoic Acid]	C (a value greater than 10 °C and less than or equal to 25 °C is marked “C”)	B (a value between 12-20 is marked “B”)
CC(CC(=O)O)c1cccc([C@@]2(C)CCCC(C)(C)CS(=O)(=O)CCc3c(c(F)cc4[nH]ccc34)[S+]([O-])c3ccc(F)c(c3)-c3nc2nn3C)c1 (mixture of isomers) [Compound 217A, 3-[3-[(6R)-22,28-difluoro-3,6,10,10-tetramethyl-12,12,24-trioxo-12λ6,24λ4-dithia-3,4,19,30-tetrazapentacyclo[23.3.1.12,5.015,23.016,20]triaconta-1(29),2(30),4,15,17,20,22,25,27-nonaen-6-yl]phenyl]butanoic Acid]	B (a value above 5 °C and less than or equal to 10 °C is marked “B”)	A (a TECC value less than 12 is marked “A”)
CC(CC(=O)O)c1cccc([C@@]2(C)CCCC(C)(C)CS(=O)(=O)CCc3c(c(F)cc4[nH]ccc34)[S+]([O-])c3ccc(F)c(c3)-c3nc2nn3C)c1 (mixture of isomers) [Compound 217B, 3-[3-[(6R)-22,28-difluoro-3,6,10,10-tetramethyl-12,12,24-trioxo-12λ6,24λ4-dithia-3,4,19,30-tetrazapentacyclo[23.3.1.12,5.015,23.016,20]triaconta-1(29),2(30),4,15,17,20,22,25,27-nonaen-6-yl]phenyl]butanoic Acid]	C (a value greater than 10 °C and less than or equal to 25 °C is marked “C”)	C (a value between 20 and 80 is marked “C”)
CC(O)Cn1nc2nc1-c1cc(ccc1F)Oc1c(F)cc3[nH]ccc3c1CCS(=O)(=O)CC(C)(C)CCC[C@]2(C)c1cccc(C[C@@H](C)C(=O)O)c1 (mixture of isomers) [Compound 219, (2R)-3-[3-[(6R)-22,28-Difluoro-3-(2-hydroxypropyl)-6,10,10-trimethyl-12,12-dioxo-24-oxa-12λ6-thia-3,4,19,30-tetrazapentacyclo[23.3.1.12,5.015,23.016,20]triaconta-1(29),2(30),4,15,17,20,22,25,27-nonaen-6-yl]phenyl]-2-methyl-propanoic acid]	C (a value greater than 10 °C and less than or equal to 25 °C is marked “C”)	C (a value between 20 and 80 is marked “C”)
C[C@H](Cc1cccc(C2(C)CCCC(C)(C)CS(=O)(=O)CCc3c(c(F)cc4[nH]ccc34)Oc3ccc(F)c(c3)-c3ccn2n3)c1)C(=O)O (mixture of isomers) [Compound 230, (2R)-3-[3-(22,28-difluoro-6,10,10-trimethyl-12,12-dioxo-24-oxa-12λ6-thia-5,19,30-triazapentacyclo[23.3.1.12,5.015,23.016,20]triaconta-1(29),2(30),3,15,17,20,22,25,27-nonaen-6-yl)phenyl]-2-methyl-propanoic Acid]	C (a value greater than 10 °C and less than or equal to 25 °C is marked “C”)	C (a value between 20 and 80 is marked “C”)
C[C@@H](Cc1cccc([C@@]2(C)CCCC(C)(C)CS(=O)(=O)CCc3c(c(F)cc4[nH]ccc34)C(=O)c3ccnc(c3)-c3nc2nn3C)c1)C(=O)O (mixture of isomers) [Compound 254, (2S)-2-Methyl-3-[3-[rac-(6R)-22-fluoro-3,6,10,10-tetramethyl-12,12,24-trioxo-12λ6-thia-3,4,19,28,30-pentazapentacyclo[23.3.1.12,5.015,23.016,20]triaconta-1(29),2(30),4,15,17,20,22,25,27-nonaen-6-yl]phenyl]propanoic Acid]	C (a value greater than 10 °C and less than or equal to 25 °C is marked “C”)	B (a value between 12-20 is marked “B”)
CC1(C)CCCC(c2cccc(CCC(=O)O)c2)n2ncc(C#N)c2-c2cc(ccc2F)Oc2c(F)cc3[nH]ccc3c2CCS(=O)(=O)C1 (racemic) [Compound 22A, 3-[3-(3-cyano-23,29-difluoro-11,11-dimethyl-13,13-dioxo-25-oxa-13lambda6-thia-5,6,20-triazapentacyclo[24.3.1.02,6.016,24.017,21]triaconta-1(30),2,4,16,18,21,23,26,28-nonaen-7-yl)phenyl]propanoic acid]	A (an ΔTagg value less than or equal to 5 °C is marked “A”)	A (a TECC value less than 12 is marked “A”)
Cn1nc2nc1-c1cc(ccc1F)Oc1c(F)cc3[nH]ccc3c1CCS(=O)(=O)CC(C)(C)CCCC2(C)c1cccc(CCC(=O)O)c1 (racemic) [Compound 56, 3-[3-(22,28-Difluoro-3,6,10,10-tetramethyl-12,12-dioxo-24-oxa-12lambda6-thia-3,4,19,30-tetrazapentacyclo[23.3.1.12,5.015,23.016,20]triaconta-1(29),2(30),4,15,17,20,22,25,27-nonaen-6-yl)phenyl]propanoic acid]	C (a value greater than 10 °C and less than or equal to 25 °C is marked “C”)	A (a TECC value less than 12 is marked “A”)
Cc1cn2nc1-c1cc(ccc1F)Oc1c(F)cc3[nH]ccc3c1CCS(=O)(=O)CC(C)(C)CCCC2c1cccc(CCC(=O)O)c1 (racemic) [Compound 66, 3-[3-(22,28-Difluoro-3,10,10-trimethyl-12,12-dioxo-24-oxa-12λ6-thia-5,19,30-triazapentacyclo[23.3.1.12,5.015,23.016,20]triaconta-1(29),2(30),3,15,17,20,22,25,27-nonaen-6-yl)phenyl]propanoic Acid]	C (a value greater than 10 °C and less than or equal to 25 °C is marked “C”)	B (a value between 12-20 is marked “B”)
Cn1nc2nc1-c1cc(ccc1F)Oc1c(F)cc3[nH]ccc3c1CCS(=O)(=O)/C=C(\F)C(C)(C)CCC2(C)c1cccc(CCC(=O)O)c1 (racemic) [Compound 94, 3-[3-[(10Z)-10,22,28-Trifluoro-3,6,9,9-tetramethyl-12,12-dioxo-24-oxa-12lambda6-thia-3,4,19,30-tetrazapentacyclo-[23.3.1.12,5.015,23.016,20]triaconta-1(29),2(30),4,10,15,17,20,22,25,27-decaen-6-yl]phenyl]propanoic Acid]	A (an ΔTagg value less than or equal to 5 °C is marked “A”)	A (a TECC value less than 12 is marked “A”)
Cn1nc2nc1-c1cc(ccc1F)Cc1c(F)cc3[nH]ccc3c1CCS(=O)(=O)CC(C)(C)CCCC2(C)c1cccc(/C=C/C(=O)O)c1 (racemic) [Compound 167, (E)-3-[3-(22,28-Difluoro-3,6,10,10-tetramethyl-12,12-dioxo-12λ6-thia-3,4,19,30-tetrazapentacyclo[23.3.1.12,5.015,23.016,20]triaconta-1(29),2(30),4,15,17,20,22,25,27-nonaen-6-yl)phenyl]prop-2-enoic Acid]	C (a value greater than 10 °C and less than or equal to 25 °C is marked “C”)	A (a TECC value less than 12 is marked “A”)
